# Measured values as given in patent US5272141A, “Contraceptive and menstrual cycle controlling drug having oncostatic therapeutic properties for treatment of mammary tumors and melanomas, and method therefor” (priority 1990, dated 1993).
# Entries after “also recorded” stand apart in the source; their conditions may differ. Where two headings read alike, the source gives them in different places.
# Tests used:
# [1] = system: preventing undesired pregnancies; conditions: cited from earlier work
# [2] = Acute toxicity in rats; conditions: rat, in vivo; for LD50: po, per os, read-out: DL50 (the source's name)
# Procedure: (§1) In the specific case of melatonin, acute
# 1) Rats, intraperitoneally
# 2) Rats, per os DL50 = greater than
# (§2) (observation period 14 days)
# the symbol DL50 means the amount of material which kills 50% of the
# (§3) With respect to the toxicity of 2-iodomelatonin and 2-bromomelatonin, the acute toxicity tests have been carried out:
# 1) in rats per os: DL50 greater than 200 mg/Kg
# [3] = system: cellular membranes of melanoma; test: Binding to cellular membranes of melanoma
# [4] = system: normal tissues; test: Binding in normal tissues
# [5] = system: tumors; test: Oncostatic effects in vivo
# [6] = Hematic, biochemical, electrophoretic, organ, bone marrow and histological toxicity tests; conditions: in vivo
# Source text: The haematochemical, electrophoretic tests, and the tests for determining the status and weight of organs, bone marrow, and the hystological tests have not shown any particular toxicity and, based on these observations, which show the low toxicity of the individual compounds and associations, a favourable opinion has been released about the starting of the clinical experimentation.
# [7] = Acute toxicity in mice; conditions: mouse, in vivo, read-out: DL50 (the source's name)
# Procedure: as §3
# 2) in mice per os and intraperitoneally: DL50 greater than 100 mg/Kg.
# [8] = system: primary cultures of metastatic nodules of a human malignant melanoma; test: Growth inhibition in primary cultures of metastatic nodules of a human malignant melanoma; assay type: cell-based; conditions: in vitro
# Source text: (§4) In our studies and experiments we have obtained an inhibition greater than 75% of the growth in primary cultures of metastatic nodules of a human malignant melanoma upon treatment in "vitro" with 2-iodomelatonin and 2-bromomelatonin and in primary cultures from different human melanomas, a growth inhibition has been obtained in 6 of 11 patients studied.
# [9] = Biological activity in vivo and in vitro in respect to melatonin; conditions: both in vivo and in vitro
# [10] = system: mammary carcinoma MCF-7 cells; test: Growth inhibition of mammary carcinoma MCF-7 cells; assay type: cell-based, human; conditions: in vitro
# [11] = system: MS-2 fibrosarcoma cells; test: Lung metastasis and local tumor growth in mice implanted with MS-2 fibrosarcoma cells; assay type: in vivo
# Source text: (§5) The results obtained in our laboratories, however, have demonstered that 2-iodomelatonin and 2-bromomelatonin cause a reduction both in the number of the lung metastasis and of the local growth of tumors in mice inplanted with B-16 melanoma or MS-2 fibrosarcoma cells.
# [12] = system: stimulated dopamine release in the retina; conditions: cited from earlier work
# [13] = system: B-16 melanoma; test: Lung metastasis and local tumor growth in mice implanted with B-16 melanoma; assay type: in vivo
# Source text: as §5
# [14] = system: cellular membranes of mammary gland cancer; test: Binding to cellular membranes of mammary gland cancer
# [15] = system: bladder carcinoma RT-112; test: Growth inhibition of bladder carcinoma RT-112; assay type: cell-based, human; conditions: in vitro
# [16] = system: female patients; test: Clinical experimentation of associations used as contraceptives in eighty two female patients; assay type: in vivo, human; conditions: doses lower than those of melatonin
# [17] = system: human neoplastic cell lines; test: Oncostatic effects in vitro; assay type: cell-based
# [18] = system: neoplastic tissues; test: Binding in neoplastic tissues; conditions: compared with normal tissues
# [19] = system: tumors; test: Long term treatment: arrest and partial regression of tumors in human; assay type: in vivo; conditions: in some cases
# [20] = system: primary cultures from different human melanomas; test: Growth inhibition in primary cultures from different human melanomas; assay type: cell-based
# Source text: as §4
# [21] = system: ovarian cell line SK-OV-3; test: Growth inhibition of ovarian cell line SK-OV-3; assay type: cell-based, human; conditions: in vitro
# [22] = system: ovarian cell line JA; test: Growth inhibition of ovarian cell line JA; assay type: cell-based, human; conditions: in vitro
# [23] = system: cellular membranes of cellular lines infected with oncogenic viruses; test: Binding to cellular membranes of cellular lines infected with oncogenic viruses
# [24] = system: cell cultures, neoplasms and hyperplasias; conditions: humans; cited from earlier work
# [25] = system: cell cultures, neoplasms and hyperplasias; conditions: laboratory animals; cited from earlier work
# [26] = system: estrogen receptor; test: Estrogen receptor number in MCF-7; assay type: cell-based, human
# [27] = system: human contraception; conditions: comparatively high doses; cited from earlier work
# [28] = in vivo; parameters: species or system rabbits; conditions: rabbit, iv
# Source text: as §1
# 3) rabbits, intravenously
# as §2
# (§6) the symbol DL50 means the amount of material which kills 50% of the […]
# [29] = Sub-acute toxicity in rats; conditions: rat, in vivo, sc, subcutaneously, observation period 25 days, read-out: DL50
# Source text: and the sub-acute toxicity in:
# (observation period 25 days).
# as §6
Structure (SMILES),LD50 [2] [mg/kg],binding to cellular membranes [3],binding [4],oncostatic effects [5],"toxicity in hematic, biochemical, electrophoretic, organ, bone marrow and histological tests [6]","LD50 ([7]; ip, intraperitoneally) [mg/kg]","LD50 ([7]; po, per os) [mg/kg]",inhibition of the growth [8],activity relative to that of melatonin (times higher) [9],inhibition of the growth [10],local growth of tumors [11],number of the lung metastasis [11],inhibition of stimulated dopamine release [12],local growth of tumors [13],number of the lung metastasis [13],binding to cellular membranes [14],inhibition of the growth [15],dose reduction relative to melatonin (times lower) [16],binding affinity [18],tumor arrest and regression [19],further results
C#C[C@]1(O)CC[C@H]2[C@@H]3CCC4=CC(=O)CC[C@@H]4[C@H]3CC[C@@]21CC [1-norgestrel],–,–,–,–,–,–,–,–,–,–,–,–,–,–,–,–,–,–,–,–,contraceptive results compared with norethisterone mini-pill ([1]; reduced doses (0.08-0.16 mg)): better results
"COc1ccc2[nH]c(Br)c(CCNC(C)=O)c2c1 [2-bromomelatonin, N-acetyl-2-bromo-5-methoxytriptamine]",> 200,bind to the cellular membranes,"high affinity, saturable and specific",Powerful oncostatic effects,have not shown any particularly toxicity,> 100,> 100,greater than 75%,seven to ten,dose-dependant inhibition of the growth; also recorded: inhibited the growth of the cellular lines MCF-7 in a dose dependant manner,reduction,reduction,potent inhibitors,reduction,reduction,bind to the cellular membranes,dose-dependant inhibition of the growth,five to ten,much lower,arrest and partial regression of tumors,oncostatic effects [17]: Powerful oncostatic effects; growth inhibition obtained (patients responding of patients studied) [20]: 6 of 11; inhibition of the growth [21]: dose-dependant inhibition of the growth; inhibition of the growth [22]: dose-dependant inhibition of the growth; binding to cellular membranes [23]: bind to the cellular membranes
COc1ccc2[nH]c([125I])c(CCNC(C)=O)c2c1 [2-(125I)-iodomelatonin],–,–,–,–,–,–,–,–,–,–,–,–,–,–,–,–,–,–,–,–,binding [24]: specific and saturable binding; binding [25]: specific and saturable binding
"COc1ccc2[nH]c(I)c(CCNC(C)=O)c2c1 [2-iodomelatonin, N-acetyl-2-iodo-5-methoxytriptamine]",> 200,bind to the cellular membranes,"high affinity, saturable and specific",Powerful oncostatic effects,have not shown any particularly toxicity,> 100,> 100,greater than 75%,seven to ten,dose-dependant inhibition of the growth; also recorded: inhibited the growth of the cellular lines MCF-7 in a dose dependant manner,reduction,reduction,potent inhibitors,reduction,reduction,bind to the cellular membranes,dose-dependant inhibition of the growth,five to ten,much lower,arrest and partial regression of tumors,oncostatic effects [17]: Powerful oncostatic effects; growth inhibition obtained (patients responding of patients studied) [20]: 6 of 11; inhibition of the growth [21]: dose-dependant inhibition of the growth; inhibition of the growth [22]: dose-dependant inhibition of the growth; binding to cellular membranes [23]: bind to the cellular membranes
"C#C[C@]1(O)CC[C@H]2[C@@H]3CCC4=CC(=O)CC[C@@H]4[C@H]3CC[C@@]21C [Norethisterone, norethisterone]",–,–,–,–,–,–,–,–,–,–,–,–,–,–,–,–,–,–,–,–,"undesired pregnancies ([1]; mini-pill, alone): about 2.35%"
"COc1ccc2[nH]cc(CCNC(C)=O)c2c1 [melatonin, reference compound]",–,–,"high affinity, saturable and specific",–,have not shown any particularly toxicity,–,–,–,–,–,–,–,"potent inhibitors of stimulated dopamine release in this organ, very much like melatonin",–,–,–,–,–,much lower,arrest and partial regression of tumors,"LD50 at 336 h ([2]; ip, intraperitoneally, observation period 14 days, read-out: DL50): 462 mg/kg; LD50 ([2]; observation period 14 days): > 800 mg/kg; estrogen receptor number [26]: temporarily caused an increase of the estrogen receptor number; dose required to express contraceptive action [27]: 100 to 200 mg; LD50 at 336 h [28]: 394 mg/kg; LD50 at 600 h [29]: > 192 mg/kg"
